Data set [1] concerns the target T1, human FAAH (Homo sapiens, UniProt O00519).
T1 construct: expressed in transfected cells
T1 sequence (O00519 1-579): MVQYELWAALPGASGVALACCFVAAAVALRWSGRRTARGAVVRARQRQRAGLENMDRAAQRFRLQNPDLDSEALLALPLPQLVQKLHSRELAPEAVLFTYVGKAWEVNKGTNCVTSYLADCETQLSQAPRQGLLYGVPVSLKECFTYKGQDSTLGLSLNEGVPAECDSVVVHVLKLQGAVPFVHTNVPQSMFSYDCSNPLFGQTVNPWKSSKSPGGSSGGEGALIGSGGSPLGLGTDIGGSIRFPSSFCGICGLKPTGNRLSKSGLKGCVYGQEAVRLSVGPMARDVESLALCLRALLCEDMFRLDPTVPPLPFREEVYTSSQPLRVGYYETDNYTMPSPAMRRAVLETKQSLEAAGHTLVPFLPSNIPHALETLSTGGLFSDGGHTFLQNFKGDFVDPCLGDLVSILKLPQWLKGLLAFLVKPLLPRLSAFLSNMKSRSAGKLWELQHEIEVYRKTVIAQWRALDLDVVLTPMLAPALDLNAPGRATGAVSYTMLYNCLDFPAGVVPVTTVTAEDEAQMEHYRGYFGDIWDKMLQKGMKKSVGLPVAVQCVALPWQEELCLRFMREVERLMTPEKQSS
Nature of the data set: Assay Method 1: FAAH assay, anandamide hydrolysis in cell homogenate. Type of data set: biochemical. To be noted: average value (standard error of the mean in parenthesis); 3H-AEA 80 nM, 1 h rt. As for the experimental part:
A. Transfection of Cells with Human FAAH
A 10-cm tissue culture dish with a confluent monolayer of SK-N-MC cells was split 2 days (d) prior to transfection. Using sterile technique, the media was removed and the cells were detached from the dish by the addition of trypsin. One fifth of the cells were then placed onto a new 10-cm dish. Cells were grown in a 37° C. incubator with 5% CO2 in Minimal Essential Media Eagle with 10% Fetal Bovine Serum. After 2 d, cells were approximately 80% confluent. These cells were removed from the dish with trypsin and pelleted in a clinical centrifuge. The pellet was re-suspended in 400 μL complete media and transferred to an electroporation cuvette with a 0.4 cm gap between the electrodes. Supercoiled human FAAH cDNA (1 μg), corresponding to NCBI accession NM_001441, was added to the cells and mixed. The voltage for the electroporation was set at 0.25 kV, and the capacitance was set at 960 μF. After electroporation, the cells were diluted into complete media (10 mL) and plated onto four 10-cm dishes. Due to variability in the efficiency of electroporation, four different concentrations of cells were plated. The ratios used were 1:20, 1:10, and 1:5, with the remainder of the cells being added to the fourth dish. The cells were allowed to recover for 24 h before adding the selection media (complete media with 600 μg/mL G418). After 10 d, dishes were analyzed for surviving colonies of cells. Dishes with well-isolated colonies were used. Cells from individual colonies were isolated and tested.
T84 frozen cell pellets or transfected SK-N-MC cells (contents of 1×15 cm culture dishes) were homogenized in 50 mL of FAAH assay buffer (125 mM Tris, 1 mM EDTA, 0.2% Glycerol, 0.02% Triton X-100, 0.4 mM Hepes, pH 9). The assay mixture consisted of 50 μL of the cell homogenate, 10 μL of the test compound, and 40 μL of anandamide [1-^3H-ethanolamine] (^3H-AEA, Perkin-Elmer, 10.3 Ci/mmol), which was added last, for a final tracer concentration of 80 nM. The reaction mixture was incubated at rt for 1 h. […]

Data set [2] has as its system heart muscle. Nature of the data set: Assay Method 4: rat screening toxicity protocol. It is filed as in vivo. The note with it: 300 mg/kg daily oral, up to 4 days, male rats. The protocol: Rat Screening Toxicity Protocol
Male Crl:CD® (SD) rats approximately 8 weeks of age and weighing approximately 200 to 350 grams at initiation of dosing, were supplied by Charles River Laboratories, Hollister, Calif. Rats were individually housed in solid bottom plastic cages with 0.25 inch Cobb Bedding. Study rooms were maintained on a 12-hour light/dark cycle, with a temperature range of 64 to 79° F., and a relative humidity range of 30 to 70%. Rats were fed ad libitum (except where noted) with Rodent Diet 5008 supplied by PMI® Nutrition International, Richmond, Ind. Water was provided ad libitum by an automatic watering system and/or water bottles. The animals were quarantined for at least 5 days (prior to treatment period). Rats were selected on the basis of predose evaluations and randomly assigned to groups using a computer-generated randomization method based on body weight.
A vehicle treated group was dosed to match the highest dose volume (mL/kg) used. The test compound was administered orally daily. Test compounds were stored at room temperature. 4-({3-[(4-chlorophenyl)oxy]phenyl}methyl)-N-pyridin-3-ylpiperazine-1-carboxamide was dosed in solution using 20% cyclodextrin as the vehicle. N-pyridin-3-yl-4-{3-[4-(trifluoromethyl)phenoxy]benzyl}piperazine-1-carboxamide bis-hydrochloride dihydrate was dosed in solution using water as the vehicle. Rats in the vehicle treated and test article treated were dosed for up to 4 days. Mortality checks were performed at least once a day on all animals pre-dose and post-dose. Clinical observations were performed at least once during the pre-dose period. Clinical observations were recorded prior to dosing, at least once after daily dosing, and prior to scheduled necropsy for animals assessed for toxicology. Body Weights were determined at least once during the pre-dose period, prior to the first dose, once during dose administration and once after the last dose, and once prior to necropsy for tissue body weight ratios. […] Observations were recorded at necropsy and tissue trimming. […] Clinical pathology was not determined on these animals. […]

Structures can show the parent of a compound that is named as a salt.

Here are results for three compounds from patent US20120225097A1, “PIPERAZINECARBOXAMIDE DERIVATIVE USEFUL AS A MODULATOR OF FATTY ACID AMIDE HYDROLASE (FAAH)” (priority 2009, published 2012).

Regarding `O=C(Nc1cccnc1)N1CCN(Cc2cccc(Oc3ccc(C(F)(F)F)cc3)c2)CC1` [Example 1, N-Pyridin-3-yl-4-{3-[4-(trifluoromethyl)phenoxy]benzyl}piperazine-1-carboxamide, bis-hydrochloride dihydrate], the IC50 in data set [1] stood at 1 nM. In addition, the “lesions in heart muscle” value in data set [2] (listed as N-pyridin-3-yl-4-{3-[4-(trifluoromethyl)phenoxy]benzyl}piperazine-1-carboxamide , bis-hydrochloride dihydrate) is “absent”; in data set [2] (listed as N-pyridin-3-yl-4-{3-[4-(trifluoromethyl)phenoxy]benzyl}piperazine-1-carboxamide, bis-hydrochloride dihydrate) it was “lacked such lesions”.

With `O=C(Nc1cccnc1)N1CCN(Cc2cccc(Oc3ccc(Br)cc3)c2)CC1` [4-[3-(4-Bromophenoxy)benzyl]-N-pyridin-3-ylpiperazine-1-carboxamide], the 50% inhibitory concentration (IC50) in data set [1] worked out at 1 nM.

As for `O=C(Nc1cccnc1)N1CCN(Cc2cccc(Oc3ccc(Cl)cc3)c2)CC1` [4-({3-[(4-Chlorophenyl)oxy]phenyl}methyl)-N-pyridin-3-ylpiperazine-1-carboxamide], the IC50 in data set [1] was found to be 2.4 nM. In addition, in data set [2], the “lesions in heart muscle” value is “developed lesions in heart muscle”.
